Test results from ChEMBL document CHEMBL3102693 (ACS Med Chem Lett, 2013).
Converted amounts (≈) assume the structure as drawn.

Tests used:
[1] = tested on: Mycobacterium tuberculosis; test: Antimicrobial activity against Mycobacterium tuberculosis H37Rv after 10 to 14 days by broth microdilution assay; format: functional
[2] = biological target: T1, BirA bifunctional protein (Mycobacterium tuberculosis (strain CDC 1551 / Oshkosh), UniProt P96884); test: Inhibition of biotin binding to Mycobacterium tuberculosis BirA by isothermal titration calorimetry
T1 sequence (P96884 whole entry): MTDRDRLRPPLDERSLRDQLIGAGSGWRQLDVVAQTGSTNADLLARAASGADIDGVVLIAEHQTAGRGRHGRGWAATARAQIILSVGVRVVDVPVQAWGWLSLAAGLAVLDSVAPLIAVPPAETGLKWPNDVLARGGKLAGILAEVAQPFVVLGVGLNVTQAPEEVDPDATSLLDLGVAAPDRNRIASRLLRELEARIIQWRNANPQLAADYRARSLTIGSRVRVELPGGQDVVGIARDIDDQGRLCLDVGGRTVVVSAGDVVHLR

Compound `Nc1ncnc2c1ncn2[C@@H]1O[C@H](CNS(=O)(=O)NC(=O)CCCC[C@@H]2SC[C@@H]3NC(=O)N[C@@H]32)[C@@H](O)[C@H]1O` has an MIC90 [1] of 0.78 µM (≈ 0.446 µg/mL).

With `Nc1ncnc2c1ncn2[C@@H]1O[C@H](CCS(=O)(=O)NC(=O)CCCC[C@@H]2SC[C@@H]3NC(=O)N[C@@H]32)[C@@H](O)[C@H]1O` the MIC90 [1] was 3.12 µM (≈ 1.78 µg/mL) and the Kd [2] was 0.1 nM.

Work on `Nc1nccc2c1ncn2[C@@H]1O[C@H](COS(=O)(=O)NC(=O)CCCC[C@@H]2SC[C@@H]3NC(=O)N[C@@H]32)[C@@H](O)[C@H]1O` yielded an MIC90 [1] of 1.56 µM (≈ 0.892 µg/mL) and a Kd [2] of 0.04 nM.

`Nc1nc2ccccc2c2c1ncn2[C@@H]1O[C@H](COS(=O)(=O)NC(=O)CCCC[C@@H]2SC[C@@H]3NC(=O)N[C@@H]32)[C@@H](O)[C@H]1O` showed an MIC90 [1] of over 100 µM and a Kd [2] of 0.23 nM.

For `CC(C)(C)C#Cc1nc(N)c2ncn([C@@H]3O[C@H](COS(=O)(=O)NC(=O)CCCC[C@@H]4SC[C@@H]5NC(=O)N[C@@H]54)[C@@H](O)[C@H]3O)c2n1`, the MIC90 [1] was over 100 µM and the Kd [2] was 11 nM.
